Measurements reported in PubChem BioAssay (NCI).
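Compound exposure: 48 hours, 5 concentrations, 96-well plates. TGI is the concentration that stops growth completely.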

How the values were obtained:
Assay in all cases: NCI tumour cell line growth inhibition, 48 h
786-0 renal = tested on: 786-0 renal
A498 renal = tested on: A498 renal
A549 NSCLC = tested on: A549 NSCLC
ACHN renal = tested on: ACHN renal
BT-549 breast = tested on: BT-549 breast
CAKI-1 renal = tested on: CAKI-1 renal
CCRF-CEM leukemia = tested on: CCRF-CEM leukemia
COLO 205 colon = tested on: COLO 205 colon
DU-145 prostate = tested on: DU-145 prostate
EKVX NSCLC = tested on: EKVX NSCLC
HCC-2998 colon = tested on: HCC-2998 colon
HCT-116 colon = tested on: HCT-116 colon
HCT-15 colon = tested on: HCT-15 colon
HOP-62 NSCLC = tested on: HOP-62 NSCLC
HOP-92 NSCLC = tested on: HOP-92 NSCLC
HS 578T breast = tested on: HS 578T breast
HT29 colon = tested on: HT29 colon
IGROV1 ovarian = tested on: IGROV1 ovarian
K-562 leukemia = tested on: K-562 leukemia
KM12 colon = tested on: KM12 colon
LOX IMVI melanoma = tested on: LOX IMVI melanoma
M14 melanoma = tested on: M14 melanoma
MALME-3M melanoma = tested on: MALME-3M melanoma
MCF7 breast = tested on: MCF7 breast
MDA-MB-231 breast = tested on: MDA-MB-231 breast
MDA-MB-435 = tested on: MDA-MB-435
MDA-N = tested on: MDA-N
MOLT-4 leukemia = tested on: MOLT-4 leukemia
NCI-H226 lung = tested on: NCI-H226 lung
NCI-H23 lung = tested on: NCI-H23 lung
NCI-H460 lung = tested on: NCI-H460 lung
NCI-H522 lung = tested on: NCI-H522 lung
NCI/ADR-RES ovarian = tested on: NCI/ADR-RES ovarian
OVCAR-3 ovarian = tested on: OVCAR-3 ovarian
OVCAR-4 ovarian = tested on: OVCAR-4 ovarian
OVCAR-5 ovarian = tested on: OVCAR-5 ovarian
OVCAR-8 ovarian = tested on: OVCAR-8 ovarian
PC-3 prostate = tested on: PC-3 prostate
RPMI-8226 leukemia = tested on: RPMI-8226 leukemia
RXF 393 renal = tested on: RXF 393 renal
SF-268 CNS = tested on: SF-268 CNS
SF-295 CNS = tested on: SF-295 CNS
SF-539 CNS = tested on: SF-539 CNS
SK-MEL-2 melanoma = tested on: SK-MEL-2 melanoma
SK-MEL-28 melanoma = tested on: SK-MEL-28 melanoma
SK-MEL-5 melanoma = tested on: SK-MEL-5 melanoma
SN12C renal = tested on: SN12C renal
SNB-19 CNS = tested on: SNB-19 CNS
SNB-75 CNS = tested on: SNB-75 CNS
SR leukemia = tested on: SR leukemia
SW-620 colon = tested on: SW-620 colon
TK-10 renal = tested on: TK-10 renal
U251 CNS = tested on: U251 CNS
UACC-257 melanoma = tested on: UACC-257 melanoma
UACC-62 melanoma = tested on: UACC-62 melanoma
UO-31 renal = tested on: UO-31 renal
HL-60(TB) leukemia = tested on: HL-60(TB) leukemia
SK-OV-3 ovarian = tested on: SK-OV-3 ovarian

With COC(=O)CCC1(O)C=CC(=O)C=C1 the TGI (786-0 renal) was > 100 µM, the TGI (A498 renal) was > 100 µM and the TGI (A549 NSCLC) was > 100 µM. The TGI (ACHN renal) was > 100 µM, the TGI (BT-549 breast) was > 100 µM and the TGI (CAKI-1 renal) was 33.1 µM. For the same compound, the TGI (CCRF-CEM leukemia) was > 100 µM, the TGI (COLO 205 colon) was 40.2 µM and the TGI (DU-145 prostate) was > 100 µM. For the same compound, the TGI (EKVX NSCLC) was > 100 µM, the TGI (HCC-2998 colon) was > 100 µM and the TGI (HCT-116 colon) was > 100 µM. The TGI (HCT-15 colon) was 43.2 µM, the TGI (HOP-62 NSCLC) was > 100 µM and the TGI (HOP-92 NSCLC) was > 100 µM. For the same compound, the TGI (HS 578T breast) was > 100 µM, the TGI (HT29 colon) was > 100 µM and the TGI (IGROV1 ovarian) was > 100 µM. For the same compound, the TGI (K-562 leukemia) was > 100 µM, the TGI (KM12 colon) was > 100 µM and the TGI (LOX IMVI melanoma) was > 100 µM. The TGI (M14 melanoma) was > 100 µM, the TGI (MALME-3M melanoma) was 50 µM and the TGI (MCF7 breast) was > 100 µM. For the same compound, the TGI (MDA-MB-231 breast) was > 100 µM, the TGI (MDA-MB-435) was > 100 µM and the TGI (MDA-N) was > 100 µM. The TGI (MOLT-4 leukemia) was > 100 µM, the TGI (NCI-H226 lung) was > 100 µM and the TGI (NCI-H23 lung) was 97.4 µM. The TGI (NCI-H460 lung) was > 100 µM, the TGI (NCI-H522 lung) was 28.8 µM and the TGI (NCI/ADR-RES ovarian) was > 100 µM. The TGI (OVCAR-3 ovarian) was 59.5 µM, the TGI (OVCAR-4 ovarian) was > 100 µM and the TGI (OVCAR-5 ovarian) was > 100 µM. For the same compound, the TGI (OVCAR-8 ovarian) was > 100 µM, the TGI (PC-3 prostate) was > 100 µM and the TGI (RPMI-8226 leukemia) was > 100 µM. The TGI (RXF 393 renal) was 61.5 µM, the TGI (SF-268 CNS) was > 100 µM and the TGI (SF-295 CNS) was > 100 µM. For the same compound, the TGI (SF-539 CNS) was 76.4 µM, the TGI (SK-MEL-2 melanoma) was > 100 µM and the TGI (SK-MEL-28 melanoma) was 60.9 µM. The TGI (SK-MEL-5 melanoma) was > 100 µM, the TGI (SN12C renal) was > 100 µM and the TGI (SNB-19 CNS) was > 100 µM. The TGI (SNB-75 CNS) was > 100 µM, the TGI (SR leukemia) was > 100 µM and the TGI (SW-620 colon) was > 100 µM. The TGI (TK-10 renal) was > 100 µM, the TGI (U251 CNS) was 63.2 µM and the TGI (UACC-257 melanoma) was 66.3 µM. The TGI (UACC-62 melanoma) was 58 µM and the TGI (UO-31 renal) was > 100 µM.
In the case of Cn1c(=O)sc2cc(C(=S)N3CCN(c4ccccc4)CC3)ccc21, the TGI (786-0 renal) is reported as > 100 µM, the TGI (A498 renal) is reported as > 100 µM and the TGI (ACHN renal) is reported as > 100 µM. For the same compound, the TGI (BT-549 breast) was > 100 µM, the TGI (CAKI-1 renal) was > 100 µM and the TGI (CCRF-CEM leukemia) was > 100 µM. For the same compound, the TGI (COLO 205 colon) was > 100 µM, the TGI (DU-145 prostate) was > 100 µM and the TGI (EKVX NSCLC) was > 100 µM. The TGI (HCT-116 colon) was > 100 µM, the TGI (HCT-15 colon) was > 100 µM and the TGI (HL-60(TB) leukemia) was > 100 µM. For the same compound, the TGI (HOP-62 NSCLC) was 42.8 µM, the TGI (HS 578T breast) was > 100 µM and the TGI (HT29 colon) was > 100 µM. For the same compound, the TGI (IGROV1 ovarian) was > 100 µM, the TGI (K-562 leukemia) was > 100 µM and the TGI (KM12 colon) was > 100 µM. The TGI (LOX IMVI melanoma) was > 100 µM, the TGI (M14 melanoma) was > 100 µM and the TGI (MALME-3M melanoma) was > 100 µM. For the same compound, the TGI (MCF7 breast) was > 100 µM, the TGI (MDA-MB-231 breast) was > 100 µM and the TGI (MDA-MB-435) was > 100 µM. The TGI (MDA-N) was > 100 µM, the TGI (MOLT-4 leukemia) was > 100 µM and the TGI (NCI-H226 lung) was > 100 µM. For the same compound, the TGI (NCI-H23 lung) was > 100 µM, the TGI (NCI-H460 lung) was > 100 µM and the TGI (NCI/ADR-RES ovarian) was > 100 µM. The TGI (OVCAR-3 ovarian) was > 100 µM, the TGI (OVCAR-5 ovarian) was > 100 µM and the TGI (OVCAR-8 ovarian) was > 100 µM. For the same compound, the TGI (PC-3 prostate) was > 100 µM, the TGI (RPMI-8226 leukemia) was > 100 µM and the TGI (RXF 393 renal) was > 100 µM. The TGI (SF-268 CNS) was > 100 µM, the TGI (SF-295 CNS) was 53.9 µM and the TGI (SF-539 CNS) was 61.4 µM. The TGI (SK-MEL-2 melanoma) was > 100 µM, the TGI (SK-MEL-28 melanoma) was > 100 µM and the TGI (SK-MEL-5 melanoma) was > 100 µM. The TGI (SK-OV-3 ovarian) was > 100 µM, the TGI (SN12C renal) was > 100 µM and the TGI (SNB-19 CNS) was > 100 µM. The TGI (SNB-75 CNS) was 80.6 µM, the TGI (SR leukemia) was > 100 µM and the TGI (SW-620 colon) was > 100 µM. The TGI (TK-10 renal) was > 100 µM, the TGI (U251 CNS) was 35.1 µM and the TGI (UACC-257 melanoma) was > 100 µM. The TGI (UACC-62 melanoma) was > 100 µM.
